# Assay results taken from patent publication US8653271B2 (priority 2006, dated 2014).
# Where “and” joins values, the source holds several entries; their conditions need not be identical. Equal entries are not always repeated. Where two headings read alike, the source gives them in different places.
# Legend:
# physchem = format: physicochemical; conditions: for Light mineral oil solubility: 32° C., 48 h equilibration (Table 3); for Hanks' buffer solubility: pH 7.4, 32° C., 30 min sonication
# Procedure: The solubilities of CB-NTXOL-BUPOH, hydroxybupropion, and 6-β-naltrexol were determined by adding excess quantity of drug to mineral oil or pre-warmed HEPES-buffered Hanks' salt solution pH 7.4 at 32° C. (skin surface temperature), with equilibration while shaking in a water bath at 60 rpm. Weighing 4 mg of each of the drugs and placing them in 1 ml of each of the respective solvents was enough to ensure that there was excess drug in solution. Samples were drawn into a pre-warmed glass syringe, filtered through a syringe filter (Mineral oil: Millex FG-13, Millipore, Billerica, Mass., USA, and buffer: nylon filter, Gelman, East Hills, N.Y., USA), and measured with respect to volume and diluted with an appropriate volume of acetonitrile or buffer. The drug from the buffer samples was immediately extracted by solid phase extraction as described above. Drugs in mineral oil were diluted with a hundred-fold volume of acetonitrile and extraction recoveries were >95% for all the drugs. The sampling procedure was done in triplicate, discarding the first 40% of the initial filtrate. […]. For buffer solubilities, samples were taken after 30 min of sonication (to minimize the hydrolysis of the codrug). No significant difference was found between 30 min sonication solubility measurements and equilibrium solubility measurements taken after 48 h for 6-β-naltrexol.
# [1] = Stratum corneum/vehicle partition coefficient studies; format: in vitro ADME, human; conditions: mineral oil vehicle, 32° C., 48 h; no units
# Procedure: Human epidermis with stratum corneum (SC) side facing up was incubated on filter paper soaked with 0.1% trypsin in 0.5% sodium bicarbonate solution at 37° C. for 3 h. The SC membrane was separated and dried in a vacuum dessicator. After 24 h, the SC was dipped in acetone for 20 s to remove sebaceous lipids and dried again.
# Approximately 5 mg of SC was equilibrated with sub-saturated drug solutions in 0.5 g of mineral oil solution at 32° C. for 48 h. Two different levels of sub-saturated drug solutions, 10 and 20 nmol in 0.5 g of mineral oil, were used in SC/vehicle partition coefficient studies. However, irrespective of the drug concentrations used, the ratio derived should always be the same since the partition coefficient measurement is an equilibrium phenomenon. An aliquot of the mineral oil solution (10 μl) was withdrawn at the end of the study and was diluted to 1000 μl with acetonitrile. The samples were then analyzed by HPLC. The amount of the drug partitioned into the SC was measured by subtracting the amount present in the mineral oil after equilibration from the initial drug concentration in the mineral oil. The partition coefficient ratio was expressed as the concentration of the drug in 1 g of SC divided by the concentration of the drug in 1 g of mineral oil.
# [2] = Plasma hydrolysis of the carbonate codrug; format: in vitro ADME, guinea pig; conditions: for Guinea pig plasma half-life: guinea pig plasma in vitro at 37° C.
# Procedure: Guinea pig plasma, which was stored at −20° C., was thawed to room temperature. Known and sub-saturated amounts of the codrug (50 nmol) were added to approximately 2.0 ml of the guinea pig plasma and vortexed. Two-hundred μl aliquots of the spiked plasma were distributed into sealed vials, and incubated at 37° C. Samples were withdrawn at predetermined time intervals; 0, 0.5, 1, 2, 4, 6, 9, 24, 30, and 48 h. 500 μl of ACN was added to each sample to precipitate plasma protein. Each sample was vortexed and centrifuged at 10,000×g for 15 min. The supernatant was separated and evaporated under nitrogen at room temperature, and the residue was reconstituted with ACN for high-pressure liquid chromatography (HPLC) analysis. A standard curve was prepared from drug-spiked plasma samples processed by the same method. The amounts of the codrug remaining or parent drugs released were plotted against time. These hydrolytic profiles were fit to previously developed mathematical models using nonlinear least-squares regression analysis ([…]®, Micromath Inc., Salt Lake City, Utah) as described by the equations below: […]
# [3] = Permeation studies in guinea pigs in vivo (topical gel, plasma pharmacokinetics); design: species or system hairless guinea pigs; conditions: for Enhancement factor (delivery of 6-β-naltrexol in vivo): codrug gel versus 6-β-naltrexol base gel, guinea pigs; for Tlag of 6-β-naltrexol: lag time to steady-state; for Tlag of 6-β-naltrexol / AUC0-48 of 6-β-naltrexol / Cmax of 6-β-naltrexol / Tmax of 6-β-naltrexol / Observed CSS of 6-β-naltrexol: topical gel; for Tlag of 6-β-naltrexol / Cmax of 6-β-naltrexol / Tmax of 6-β-naltrexol / Observed CSS of 6-β-naltrexol: hairless guinea pigs; for AUC0-48 of 6-β-naltrexol / Cmax of 6-β-naltrexol / Tmax of 6-β-naltrexol: plasma; for AUC0-48 of 6-β-naltrexol: 14.5 cm^2, hairless guinea pigs; for Observed CSS of 6-β-naltrexol: steady-state plasma concentration, 48 h; for intact codrug in guinea pig plasma after topical application: in vivo plasma samples
# Procedure: A hydroxyethyl cellulose-based gel was prepared for topical application. First, either CB-NTXOL-BUPOH or 6-β-naltrexol (˜25 mg each) was dissolved in 1 ml of PG:buffer, pH 7.4 (2:3, v/v) solution using a magnetic stirrer. Hydroxyethyl cellulose (2%, w/w) was dispersed into these mixtures, sonicated, vortexed, and allowed to form a gel at room temperature. The drug in each formulation was saturated, forming a suspension.
# Male and female Hairless IAF and Hartley guinea pigs (Charles River) weighing 345-482 g were used for topical studies (n=5 to 6 per treatment group). Prior to surgery, the animals were treated with glycopyrrolate and buprenorphine (to induce analgesia), and then ketamine (100 mg/kg, i.p.) and xylazine (8 mg/kg, i.m.) were used for anesthetic purposes. Catheters were surgically implanted into the jugular vein. A “blank” baseline plasma sample was drawn from each animal immediately before drug treatment. 500 μL of the gel containing the drug was applied onto the dorsal region of the guinea pig with a syringe and subsequently spread to cover an area of 7.25 cm^2. A rubber ring fitted with a drug-impermeable backing laminate (MEDIFLEX® 1502) was used to enclose the area of gel application. ARcare® acrylic adhesive was used to ensure that the ring maintained contact with the skin. Additionally, a bio-occlusive tape was placed over the patches to further secure the formulation on the guinea pigs. Drug formulations were applied on both sides of each guinea pig to give a total application area of 14.5 cm^2. Plasma samples were obtained at predetermined time intervals, which included 48 h while the formulations were on the animal, and for another 48 h after patches and formulations were removed. Blood samples were immediately centrifuged at 10,000×g for 3 min, and the plasma was separated. Plasma samples were stored at −70° C. until analysis by liquid chromatographic mass spectrometry, LC-MS.
# Topical administration data were analyzed by non-compartmental analysis to determine mean steady-state plasma concentration (CSS), lag time to steady-state (tlag), and area under the curve from 0 to 48 h, AUC0-48.
# [4] = Differential scanning calorimetry; format: physicochemical; conditions: for Mean activity of solid @ T = 25° C., a2: calculated from melting point and heat of fusion; for Heat of fusion, ΔHf: ±s.d., n = 3
# [5] = Table 4; values obtained from Kiptoo et al.; cited from earlier work
# [6] = human skin, values obtained from Kiptoo et al., cited from earlier work; for In vitro flux: codrug as NTXOL equivalent flux
Compound,Light mineral oil solubility (physchem) [µM],Hanks' buffer solubility (physchem) [µM],"SC/Vehicle partition coefficient, PC [1]",Enhancement factor (delivery of 6-β-naltrexol in vivo) [3],Tlag of 6-β-naltrexol [3] [h],AUC0-48 of 6-β-naltrexol [3] [ng·h/mL],Cmax of 6-β-naltrexol [3] [ng/mL],Tmax of 6-β-naltrexol [3] [h],"Mean activity of solid @ T = 25° C., a2 [4]","Heat of fusion, ΔHf [4] [kcal/mol]",Light mineral oil solubility [5] [µM],In vitro flux [6] [nmol cm^−2 h^−1],In vitro lag time [6] [h],further results
"Oc1ccc2c3c1O[C@H]1[C@H](O)CC[C@@]4(O)[C@@H](C2)N(CC2CC2)CC[C@]314 [Compound 2, 6-β-naltrexol]",30,300,73.91,1,5.1 ± 0.7,66.4 ± 7.9,1.5 ± 0.2,28.1 ± 1.5,0.12,3.597 ± 0.0478,30 ± 10,0.36 ± 0.15,15.72 ± 1.76,Guinea pig plasma half-life [2]: stable; Observed CSS of 6-β-naltrexol [3]: 1.25 ± 0.51 ng/mL and 1.2 ng/mL; Observed CSS of 6-β-naltrexol ([3]; listed as NTXOL): 1.2 ± 0.5 ng/mL
Cc1c(-c2cccc(Cl)c2)oc(=O)n1C(C)(C)COC(=O)Oc1ccc2c3c1OC1C(O)CCC4(O)C(C2)N(CC2CC2)CCC314 (stereo not drawn) [Compound 26],2880,530,200.61,five-fold,5.0 ± 1.1,282.0 ± 14.5,6.6 ± 0.4,10.1 ± 0.9,0.20,3.031 ± 0.019,2880 ± 90,1.34 ± 0.35,12.10 ± 0.77,Guinea pig plasma half-life ([2]; listed as CB-NTXOL-BUPOH): 8.7 h; Guinea pig plasma half-life ([2]; listed as codrug): approximately 8.7 h; hydrolysis in guinea pig plasma compared to pH 7.4 phosphate buffer ([2]; in vitro): almost three-fold faster hydrolysis; intact codrug in guinea pig plasma after topical application ([3]; listed as CB-NTXOL-BUPOH): only trace amounts of intact codrug; intact codrug in guinea pig plasma after topical application ([3]; listed as codrug): Only trace amounts; Observed CSS of 6-β-naltrexol ([3]; listed as CB-NTXOL-BUPOH): 6.4 ng/mL and 6.4 ± 0.9 ng/mL; Observed CSS of 6-β-naltrexol ([3]; listed as codrug): 6.40 ± 0.93 ng/mL
